# From ChEMBL document CHEMBL3774347, “Docking and Linking of Fragments To Discover Jumonji Histone Demethylase Inhibitors” (J Med Chem, 2016)
# Key:
# [1] = target: Lysine-specific demethylase 5B (Homo sapiens, UniProt Q9UGL1); experiment: Inhibition of KDM5B (unknown origin) expressed in Escherichia coli using H3 (1 to 21 residues) K4Me3-GGK-Biotin KDM5B Cognate Ligand/10 uM alpha-ketoglutarate as substrate/cofactor preincubated for 5 mins followed by substrate addition measured after 20 mins by alphascreen assay
# [2] = target: T1, Lysine-specific demethylase 4C (Homo sapiens, UniProt Q9H3R0); experiment: Inhibition of N-terminal His6-tagged KDM4C (1 to 352 residues) (unknown origin) expressed in Escherichia coli Rosetta 2(DE3)pLysS using biotinylated histone H3 (1 to 21 residues) lysine 9 trimethylated peptide/2 uM alpha-ketoglutarate as substrate/cofactor measured after 45 mins by TR-FRET assay; conditions: read-out: IC50
# T1 sequence (Q9H3R0 whole entry): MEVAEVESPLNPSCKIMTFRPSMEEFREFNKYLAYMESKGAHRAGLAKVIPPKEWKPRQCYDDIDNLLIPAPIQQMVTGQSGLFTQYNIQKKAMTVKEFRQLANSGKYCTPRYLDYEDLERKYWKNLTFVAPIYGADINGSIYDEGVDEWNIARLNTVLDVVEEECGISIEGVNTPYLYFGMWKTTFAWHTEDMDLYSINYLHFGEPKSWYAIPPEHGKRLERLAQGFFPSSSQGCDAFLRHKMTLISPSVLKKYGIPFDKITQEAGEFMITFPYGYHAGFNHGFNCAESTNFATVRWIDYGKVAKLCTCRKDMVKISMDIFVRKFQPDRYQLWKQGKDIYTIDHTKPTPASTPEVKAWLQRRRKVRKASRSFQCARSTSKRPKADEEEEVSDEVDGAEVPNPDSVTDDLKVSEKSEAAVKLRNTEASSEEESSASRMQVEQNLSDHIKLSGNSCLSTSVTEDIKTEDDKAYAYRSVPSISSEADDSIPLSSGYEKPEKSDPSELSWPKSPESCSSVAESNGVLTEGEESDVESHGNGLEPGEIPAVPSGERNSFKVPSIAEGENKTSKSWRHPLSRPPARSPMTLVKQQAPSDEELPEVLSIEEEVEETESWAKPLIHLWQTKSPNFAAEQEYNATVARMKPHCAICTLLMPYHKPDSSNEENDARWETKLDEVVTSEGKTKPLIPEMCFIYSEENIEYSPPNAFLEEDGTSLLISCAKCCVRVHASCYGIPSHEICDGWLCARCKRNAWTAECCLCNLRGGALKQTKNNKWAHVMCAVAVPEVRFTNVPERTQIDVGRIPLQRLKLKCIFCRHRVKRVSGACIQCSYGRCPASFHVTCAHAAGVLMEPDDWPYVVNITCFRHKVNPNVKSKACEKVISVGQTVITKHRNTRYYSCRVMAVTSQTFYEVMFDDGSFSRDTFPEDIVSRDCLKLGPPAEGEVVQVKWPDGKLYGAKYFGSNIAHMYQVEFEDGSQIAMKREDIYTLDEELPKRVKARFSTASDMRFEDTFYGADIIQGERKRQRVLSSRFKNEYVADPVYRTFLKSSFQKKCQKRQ
# [3] = target: Hypoxia-inducible factor 1-alpha inhibitor (Homo sapiens, UniProt Q9NWT6); experiment: Inhibition of N-terminal His6-tagged full-length FIH (unknown origin) expressed in Escherichia coli Rosetta 2(DE3)pLysS using SMDESGLPQLTSYDCEVNAPIQGSRNLLQGEELLRALDQVN peptide/100 uM alpha-ketoglutarate as substrate/cofactor incubated for 45 mins by MALDI assay
# [4] = target: T2, Lysine-specific demethylase 3A (Homo sapiens, UniProt Q9Y4C1); experiment: Inhibition of KDM3A (unknown origin) expressed in Escherichia coli using H3 (1 to 21 residues) K9Me2-GGK-Biotin KDM3A Cognate Ligand/10 uM alpha-ketoglutarate as substrate/cofactor preincubated for 5 mins followed by substrate addition measured after 20 mins by alphascreen assay
# T2 sequence (Q9Y4C1 whole entry): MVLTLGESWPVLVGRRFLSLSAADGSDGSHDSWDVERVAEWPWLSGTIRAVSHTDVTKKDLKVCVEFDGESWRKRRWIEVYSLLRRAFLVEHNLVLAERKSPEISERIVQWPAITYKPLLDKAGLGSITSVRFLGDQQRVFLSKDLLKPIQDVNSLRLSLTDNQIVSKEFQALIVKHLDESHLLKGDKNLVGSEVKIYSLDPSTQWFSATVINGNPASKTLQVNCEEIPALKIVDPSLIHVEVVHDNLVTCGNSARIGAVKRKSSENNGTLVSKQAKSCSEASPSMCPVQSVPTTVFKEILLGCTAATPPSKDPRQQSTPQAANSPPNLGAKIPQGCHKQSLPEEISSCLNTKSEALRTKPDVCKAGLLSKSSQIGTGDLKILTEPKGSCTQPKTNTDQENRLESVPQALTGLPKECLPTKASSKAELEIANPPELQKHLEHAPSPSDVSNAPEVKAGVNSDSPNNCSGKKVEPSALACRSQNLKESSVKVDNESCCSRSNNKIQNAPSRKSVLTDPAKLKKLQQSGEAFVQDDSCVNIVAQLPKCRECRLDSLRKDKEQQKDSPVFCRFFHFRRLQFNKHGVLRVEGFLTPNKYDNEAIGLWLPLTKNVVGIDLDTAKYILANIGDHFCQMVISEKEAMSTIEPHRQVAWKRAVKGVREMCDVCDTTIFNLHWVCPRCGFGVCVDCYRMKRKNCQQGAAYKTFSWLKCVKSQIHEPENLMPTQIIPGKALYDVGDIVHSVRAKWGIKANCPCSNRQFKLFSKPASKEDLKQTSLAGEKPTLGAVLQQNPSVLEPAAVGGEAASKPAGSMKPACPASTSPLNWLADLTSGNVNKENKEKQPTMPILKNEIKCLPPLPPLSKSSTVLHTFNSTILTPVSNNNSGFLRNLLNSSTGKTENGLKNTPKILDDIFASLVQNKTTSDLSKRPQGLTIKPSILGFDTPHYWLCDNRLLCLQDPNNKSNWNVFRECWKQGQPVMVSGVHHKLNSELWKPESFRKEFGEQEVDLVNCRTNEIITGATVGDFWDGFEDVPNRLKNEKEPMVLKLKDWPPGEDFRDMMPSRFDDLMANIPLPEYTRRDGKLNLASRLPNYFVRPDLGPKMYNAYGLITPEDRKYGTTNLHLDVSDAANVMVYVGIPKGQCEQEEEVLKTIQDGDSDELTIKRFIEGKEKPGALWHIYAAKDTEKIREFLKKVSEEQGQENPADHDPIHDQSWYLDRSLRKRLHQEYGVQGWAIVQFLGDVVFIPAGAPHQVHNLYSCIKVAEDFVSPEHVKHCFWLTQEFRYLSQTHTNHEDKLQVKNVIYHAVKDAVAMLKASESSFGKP
# [5] = target: Lysine-specific demethylase 6B (Homo sapiens, UniProt O15054); experiment: Inhibition of KDM6B (unknown origin) expressed in Escherichia coli using H3 (21 to 44 residues) K27Me3-GGK-Biotin JMJD3 Cognate Ligand/10 uM alpha-ketoglutarate as substrate/cofactor preincubated for 5 mins followed by substrate addition measured after 5 mins by alphascreen assay
# Chain of Lysine-specific demethylase 6B (O15054 whole entry, the tested form may be a part): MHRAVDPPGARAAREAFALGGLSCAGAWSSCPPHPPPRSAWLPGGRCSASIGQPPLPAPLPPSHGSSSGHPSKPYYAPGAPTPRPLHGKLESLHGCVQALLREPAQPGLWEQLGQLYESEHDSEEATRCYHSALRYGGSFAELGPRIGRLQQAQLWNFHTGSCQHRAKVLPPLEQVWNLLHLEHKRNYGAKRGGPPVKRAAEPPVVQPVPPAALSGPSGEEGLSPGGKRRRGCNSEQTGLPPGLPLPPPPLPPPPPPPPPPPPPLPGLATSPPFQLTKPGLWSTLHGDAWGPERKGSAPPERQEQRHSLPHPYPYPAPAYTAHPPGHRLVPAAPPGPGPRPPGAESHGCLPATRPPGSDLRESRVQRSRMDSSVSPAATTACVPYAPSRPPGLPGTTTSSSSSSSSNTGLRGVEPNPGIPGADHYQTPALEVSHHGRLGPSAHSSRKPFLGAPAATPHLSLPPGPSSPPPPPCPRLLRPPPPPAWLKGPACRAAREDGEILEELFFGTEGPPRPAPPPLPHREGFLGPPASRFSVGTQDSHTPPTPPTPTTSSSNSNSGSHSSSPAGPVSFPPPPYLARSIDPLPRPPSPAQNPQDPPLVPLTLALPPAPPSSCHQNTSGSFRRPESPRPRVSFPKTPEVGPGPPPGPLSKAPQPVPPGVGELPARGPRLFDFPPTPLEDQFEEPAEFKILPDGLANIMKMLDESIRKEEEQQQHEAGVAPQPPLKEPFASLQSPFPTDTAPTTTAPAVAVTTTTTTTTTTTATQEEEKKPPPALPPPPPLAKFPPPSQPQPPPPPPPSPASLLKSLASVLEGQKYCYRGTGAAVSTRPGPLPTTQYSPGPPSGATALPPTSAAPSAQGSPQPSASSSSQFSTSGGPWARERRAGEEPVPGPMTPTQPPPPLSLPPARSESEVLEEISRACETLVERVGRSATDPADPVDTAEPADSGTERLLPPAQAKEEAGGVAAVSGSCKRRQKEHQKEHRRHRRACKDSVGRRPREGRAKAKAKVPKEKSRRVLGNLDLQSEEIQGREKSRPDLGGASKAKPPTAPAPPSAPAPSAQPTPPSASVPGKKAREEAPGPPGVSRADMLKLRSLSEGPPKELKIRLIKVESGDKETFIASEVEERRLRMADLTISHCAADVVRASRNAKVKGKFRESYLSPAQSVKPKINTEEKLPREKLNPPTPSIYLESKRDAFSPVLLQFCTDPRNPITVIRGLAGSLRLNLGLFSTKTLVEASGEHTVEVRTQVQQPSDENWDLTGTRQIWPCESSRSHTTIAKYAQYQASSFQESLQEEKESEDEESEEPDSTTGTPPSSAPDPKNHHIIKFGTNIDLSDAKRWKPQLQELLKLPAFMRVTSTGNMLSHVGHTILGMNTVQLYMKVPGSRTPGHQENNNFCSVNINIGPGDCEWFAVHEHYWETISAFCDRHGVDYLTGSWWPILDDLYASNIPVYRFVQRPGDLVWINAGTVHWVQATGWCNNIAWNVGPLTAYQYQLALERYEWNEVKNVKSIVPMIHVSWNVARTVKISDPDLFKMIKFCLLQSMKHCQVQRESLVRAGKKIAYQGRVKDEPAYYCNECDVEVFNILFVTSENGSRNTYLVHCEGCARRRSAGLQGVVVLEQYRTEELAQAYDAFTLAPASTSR
# Chain of Lysine-specific demethylase 5B (Q9UGL1 whole entry, the tested form may be a part): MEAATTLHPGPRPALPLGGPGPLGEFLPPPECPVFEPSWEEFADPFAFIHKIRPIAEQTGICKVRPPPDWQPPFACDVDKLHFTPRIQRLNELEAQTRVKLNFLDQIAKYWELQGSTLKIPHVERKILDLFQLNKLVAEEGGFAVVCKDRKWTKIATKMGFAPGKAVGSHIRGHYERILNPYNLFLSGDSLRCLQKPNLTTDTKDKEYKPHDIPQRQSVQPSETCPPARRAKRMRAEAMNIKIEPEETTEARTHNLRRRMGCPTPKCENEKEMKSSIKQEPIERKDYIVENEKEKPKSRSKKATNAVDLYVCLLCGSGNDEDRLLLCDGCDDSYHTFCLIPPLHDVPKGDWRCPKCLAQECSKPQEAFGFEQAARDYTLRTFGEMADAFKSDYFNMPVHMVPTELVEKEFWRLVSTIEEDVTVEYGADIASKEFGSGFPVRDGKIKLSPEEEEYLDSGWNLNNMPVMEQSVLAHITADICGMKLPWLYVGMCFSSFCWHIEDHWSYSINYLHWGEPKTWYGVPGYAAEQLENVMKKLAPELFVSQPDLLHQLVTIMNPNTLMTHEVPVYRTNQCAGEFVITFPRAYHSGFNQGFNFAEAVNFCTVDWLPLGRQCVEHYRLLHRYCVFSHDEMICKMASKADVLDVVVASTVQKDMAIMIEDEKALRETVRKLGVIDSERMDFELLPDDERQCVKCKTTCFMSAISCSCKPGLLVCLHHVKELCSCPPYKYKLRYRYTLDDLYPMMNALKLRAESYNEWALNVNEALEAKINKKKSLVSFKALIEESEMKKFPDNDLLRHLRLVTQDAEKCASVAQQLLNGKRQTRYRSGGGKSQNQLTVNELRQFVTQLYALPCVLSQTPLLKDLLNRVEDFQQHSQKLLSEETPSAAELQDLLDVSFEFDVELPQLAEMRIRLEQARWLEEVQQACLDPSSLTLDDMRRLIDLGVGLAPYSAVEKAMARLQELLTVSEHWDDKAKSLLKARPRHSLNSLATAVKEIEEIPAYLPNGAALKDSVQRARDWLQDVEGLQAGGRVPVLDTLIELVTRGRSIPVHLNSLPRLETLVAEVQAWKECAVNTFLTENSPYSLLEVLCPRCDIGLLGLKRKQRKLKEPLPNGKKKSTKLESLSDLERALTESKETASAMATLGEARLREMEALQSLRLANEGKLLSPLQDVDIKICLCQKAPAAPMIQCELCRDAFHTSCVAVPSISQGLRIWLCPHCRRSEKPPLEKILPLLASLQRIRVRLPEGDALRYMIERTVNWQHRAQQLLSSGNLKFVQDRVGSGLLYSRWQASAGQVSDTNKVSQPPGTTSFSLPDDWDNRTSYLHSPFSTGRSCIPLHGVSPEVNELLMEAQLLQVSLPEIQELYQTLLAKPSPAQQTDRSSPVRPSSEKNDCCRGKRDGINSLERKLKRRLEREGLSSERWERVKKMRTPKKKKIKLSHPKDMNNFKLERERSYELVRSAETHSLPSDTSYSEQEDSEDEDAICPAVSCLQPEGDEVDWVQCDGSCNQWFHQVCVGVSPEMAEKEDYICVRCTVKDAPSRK
# Chain of Hypoxia-inducible factor 1-alpha inhibitor (Q9NWT6 whole entry, the tested form may be a part): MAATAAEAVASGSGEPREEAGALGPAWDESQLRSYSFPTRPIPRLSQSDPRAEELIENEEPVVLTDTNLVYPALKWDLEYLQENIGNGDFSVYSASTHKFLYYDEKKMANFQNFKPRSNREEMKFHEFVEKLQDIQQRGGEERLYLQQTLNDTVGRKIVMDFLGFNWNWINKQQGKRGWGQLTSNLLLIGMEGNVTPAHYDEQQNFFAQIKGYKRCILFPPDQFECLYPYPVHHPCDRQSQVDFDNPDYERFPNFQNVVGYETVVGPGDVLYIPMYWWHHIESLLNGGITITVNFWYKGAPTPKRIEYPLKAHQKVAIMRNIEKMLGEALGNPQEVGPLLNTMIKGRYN
SMILES,IC50 [1] [µM],IC50 [2] [µM],IC50 [3] [µM],IC50 [4] [µM],IC50 [5] [µM]
COCC(=O)Nc1ccc(O)c(-c2cc(C(=O)O)ccn2)c1,12,0.14,> 500,11,> 100
CC(=O)Nc1ccc(O)c(-c2cc(C(=O)O)ccn2)c1,72,1.2,> 500,33,> 100
COc1cccc(CC(=O)Nc2ccc(O)c(-c3cc(C(=O)O)ccn3)c2)c1,22,0.14,> 500,9,16
O=C(O)c1ccnc(-c2cc(NC(=O)c3ccc(O)cc3)ccc2O)c1,19,0.064,> 500,2.3,27
Cc1cc(C(=O)Nc2ccc(O)c(-c3cc(C(=O)O)ccn3)c2)no1,2.7,0.065,473,5.7,31
